Experimental data as given in article PMC9090415, “Discovery of small molecule inhibitors of Plasmodium falciparum apicoplast DNA polymerase” (Journal of Enzyme Inhibition and Medicinal Chemistry, 2022).

Target: P. falciparum apicoplast DNA polymerase (Pf-apPOL) (Plasmodium falciparum, UniProt Q8ILY1)
Experiment: Fluorescence-based high-throughput DNA polymerase assay (molecular beacon), primary screen and dose-response
Format: biochemical
Conditions: for IC50: supplemental file 2, sheet IC50 nontoxic compounds, Pf-apPOL; for DNA Pol: unit not given, 90 min, 10 µM
Procedure: The HT assay employs a molecular beacon, a stem-loop DNA template with a Cy3 dye and the Black Hole Quencher on the 3′ and 5′ ends of the DNA, respectively. Pf-apPOL concentration is based on a calculated absorptivity of ε280 = 56750 M^−1 cm^−1. Reactions were carried out at 25 °C, using Corning 3575 […] (well-volume, 20 µL). Assays testing for compound inhibition composed of reaction buffer (pH 7.9 in 50 mM potassium acetate, 20 mM Tris-acetate and 10 mM magnesium acetate), Pf-apPOL (20 nM), DNA substrate (20 nM), dNTPs (6 µM), and compound (10 µM in DMSO). The DNA and nucleotide substrates (dNTPs) were at concentrations of 20 nM and 6 µM, respectively, in the assay. Pf-apPOL was incubated in the reaction buffer with dNTPs and the compound of interest (10 µM, in the assay) at 25 °C for 10 min. The DNA substrate was then added and the reaction was allowed to proceed for 90 min at 25 °C.
Each assay plate contained 16 negative controls (no Pf-apPOL, DMSO present) and 16 positive controls (Pf-apPOL present, no DMSO). The fluorescence of each well was determined using a BioTek Synergy Neo fluorescence plate reader using excitation and emission wavelengths of 555 and 570 nm, respectively.
In the above, Min is the average of fluorescence emission of the negative controls (substrate only), Max the average fluorescence emission from the positive controls (enzyme + substrate), and Test the emission from the assays in the presence of compounds (enzyme + compound + substrates). […] […] The IC50 of each compound was determined using Equation (2): (2) IC50= Vmax/(1+ (I/IC50)^n)
In the above, n measures cooperativity, with n > 1 indicating synergistic binding of more than a single molecule of the compound.
To identify apPOL inhibitors we utilised our previously developed high-throughput DNA polymerase assay. The HT assay is based on a molecular beacon DNA template that forms a stem-loop with a Cy3 dye and the Black Hole Quencher on the 3′ and 5′ ends of the DNA, respectively. DNA polymerase activity extends an annealed primer through the stem region, displacing the fluorophore from the quencher, thereby increasing its fluorescence (Figure 1(A)). The assay accurately recapitulates the kinetic behaviour of apPOL, as measured through more conventional low-throughput gel-based assays. The Z′ factor for the assay described here was 0.9 across all plates (data not shown).
Figure 1. High-throughput screening. (A) The fluorescent-based DNA polymerase assay used to screen the compound libraries. The DNA template strand is a hairpin loop with a primer annealed to the loop. The 3’ end of the primer is 11 bases away from the 6 bp duplex. Strand displacement activity of the DNA polymerase separates the Cy3 dye from the Black hole quencher leading to an increase in fluorescent signal. (B) The high-throughput assay workflow. The DNA polymerase is incubated with […] compound for 10 min prior to addition of the hairpin substrate. The reaction is quenched at 3 different time points and the fluorescent signal is measured and % inhibition is determined using the provided equation.

P. falciparum apicoplast DNA polymerase (Pf-apPOL), sequence (Q8ILY1 entry or part of it): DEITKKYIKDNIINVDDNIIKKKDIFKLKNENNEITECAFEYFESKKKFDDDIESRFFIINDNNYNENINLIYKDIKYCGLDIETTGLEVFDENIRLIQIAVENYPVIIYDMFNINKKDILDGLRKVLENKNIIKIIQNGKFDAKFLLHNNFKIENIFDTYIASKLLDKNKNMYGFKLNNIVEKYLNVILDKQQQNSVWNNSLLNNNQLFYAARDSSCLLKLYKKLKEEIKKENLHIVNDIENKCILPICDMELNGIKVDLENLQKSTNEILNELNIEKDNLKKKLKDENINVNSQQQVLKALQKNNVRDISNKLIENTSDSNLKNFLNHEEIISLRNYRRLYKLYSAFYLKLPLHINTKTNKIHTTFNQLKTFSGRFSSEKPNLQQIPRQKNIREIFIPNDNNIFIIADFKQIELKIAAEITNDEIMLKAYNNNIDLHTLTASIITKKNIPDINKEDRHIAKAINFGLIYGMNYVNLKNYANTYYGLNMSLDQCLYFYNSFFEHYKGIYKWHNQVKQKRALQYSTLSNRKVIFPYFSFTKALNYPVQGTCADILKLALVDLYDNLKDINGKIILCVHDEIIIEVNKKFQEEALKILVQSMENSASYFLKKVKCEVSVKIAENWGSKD

Cc1nc2c(oc3nc(-c4ccoc4)c4c(c32)CC(C)(C)OC4)c(-c2ccccc2)c1C(=O)O [Molecule 93]
IC50: 6.29 µM

Cc1cccc(NC(=O)Cn2ccc3c(=O)[nH]ccc32)c1C [Molecule 11]
IC50: 7.57 µM

CN(C)C1C(c2ccccc2)=C(c2ccccc2)SC(c2ccccc2)C1[N+](=O)[O-] (centres unmarked) [KU0268387]
% inhibition Apo pol 10' (DRC-1, concentration 2.5): 4.043%
% inhibition Apo pol 10' (DRC-1, concentration 5): 23.3831%
% inhibition Apo pol 10' (DRC-1, concentration 10): 45.0315%
% inhibition Apo pol 10' (DRC-1, concentration 20): 49.4618%
% inhibition Apo pol 10' (DRC-1, concentration 40): 64.8423%
% inhibition Apo pol 10' (DRC-1, concentration 80): 77.5449%
% inhibition Apol 90' (DRC-1, 90', concentration 2.5): 3.398%
% inhibition Apol 90' (DRC-1, 90', concentration 5): 22.5056%
% inhibition Apol 90' (DRC-1, 90', concentration 10): 44.0197%
% inhibition Apol 90' (DRC-1, 90', concentration 20): 52.549%
% inhibition Apol 90' (DRC-1, 90', concentration 40): 68.5649%
% inhibition Apol 90' (DRC-1, 90', concentration 80): 83.9893%
% inhibition apPOL 180' (DRC-1, 180', concentration 2.5): 1.708%
% inhibition apPOL 180' (DRC-1, 180', concentration 5): 12.7714%
% inhibition apPOL 180' (DRC-1, 180', concentration 10): 32.8138%
% inhibition apPOL 180' (DRC-1, 180', concentration 20): 41.7834%
% inhibition apPOL 180' (DRC-1, 180', concentration 40): 60.315%
% inhibition apPOL 180' (DRC-1, 180', concentration 80): 80.8354%
% inhibition Apol 40' (DRC-2, 40', concentration 20 (unit not given)): 53%
% inhibition ApPOL 90' (DRC-2, 90', concentration 20 (unit not given)): 53%
% inhibition apPOL 180' (DRC-2, 180', concentration 20 (unit not given)): 47%
% inhibition Apo pol 5' (DRC-2, concentration 2.5): 0.589%
% inhibition Apo pol 5' (DRC-2, concentration 5): 19%
% inhibition Apo pol 5' (DRC-2, concentration 10): 32%
% inhibition Apo pol 5' (DRC-2, concentration 20): 40%
% inhibition Apo pol 5' (DRC-2, concentration 40): 42%
% inhibition Apo pol 5' (DRC-2, concentration 80): 47%
% inhibition Apo pol 5' (DRC-2, concentration 80 (unit not given)): 47%
% inhibition Apol 40' (DRC-2, 40', concentration 2.5): 1.84%
% inhibition Apol 40' (DRC-2, 40', concentration 5): 25%
% inhibition Apol 40' (DRC-2, 40', concentration 10): 39%
% inhibition Apol 40' (DRC-2, 40', concentration 20): 53%
% inhibition Apol 40' (DRC-2, 40', concentration 40): 60%
% inhibition Apol 40' (DRC-2, 40', concentration 80): 68%
% inhibition ApPOL 90' (DRC-2, 90', concentration 2.5): 0.484%
% inhibition ApPOL 90' (DRC-2, 90', concentration 5): 23%
% inhibition ApPOL 90' (DRC-2, 90', concentration 10): 38%
% inhibition ApPOL 90' (DRC-2, 90', concentration 20): 53%
% inhibition ApPOL 90' (DRC-2, 90', concentration 40): 62%
% inhibition ApPOL 90' (DRC-2, 90', concentration 80): 71%
% inhibition apPOL 180' (DRC-2, 180', concentration 2.5): -3.51%
% inhibition apPOL 180' (DRC-2, 180', concentration 5): 15%
% inhibition apPOL 180' (DRC-2, 180', concentration 10): 31%
% inhibition apPOL 180' (DRC-2, 180', concentration 20): 47%
% inhibition apPOL 180' (DRC-2, 180', concentration 40): 58%
% inhibition apPOL 180' (DRC-2, 180', concentration 80): 70%
DNA Pol (primary screen value of the 186 hits): 78
DNA Pol (primary screen value, head "DNA Pol"): 78
